Measured values from US20260028336A1 (Arcus Biosciences, Inc., priority 2022, published 2026).

Experiments:
Cbl-b = molecular target: T1, Cbl-b (Homo sapiens, UniProt Q13191); assay: Cbl-b probe displacement HTRF binding assay; conditions: 0.4 nM biotinylated Cbl-b, 150 nM BODIPY probe
T1 construct: biotin (biotinylated)
Description: The affinity with which compounds of the present dislcosure bind to Cbl-b was assessed using probe displacement homologous time resolved fluorescence (HTRF) assays. […] The assays were performed in assay buffer consisting of 20 mM Hepes, 150 mM NaCl, 0.01% Triton X-100, 0.5 mM TCEP, 0.01% BSA. On the day of the assay, a 20 point, 1:2 master serial dilution of each compound was prepared in DMSO to span a final concentration range of […] to 0 nM. Two hundred nanoliters of diluted compound was added to each well of a 384-well plate. Fifteen microliters of biotinylated-Cbl-b resuspended in assay buffer were added to each well and the plate incubated for 60 minutes at room temperature prior to addition of 5 μL of BODIPY™ probe in assay buffer. […] After a further 15 minutes of incubation at room temperature, 5 μl of Streptavidin-Terbium cryptate reagent at 5-fold final concentration was added to each well of the 384-well plate. Binding of a probe to Cbl-b results in an increase of HTRF signal. […] Percentage maximum activity in each test well was calculated based on DMSO (maximum activity, 0% displacement) and no protein control wells (baseline activity, 100% displacement). Binding affinity was determined from a dose response curve fitted using a standard four parameter fit equation.

Jurkat cells = assay: IL-2 secretion assay in CD3/CD28-activated Jurkat cells (AlphaLISA); type: cell-based; conditions: Homo sapiens, CD3/CD28 T Cell Activator, 24 h, IL-2 AlphaLISA
Description: Certain compounds were also evaluated in an IL-2 secretion assay. On the day of the assay, a 16 point, 1:2 master serial dilution of each compound was prepared in Opti-MEM to span a final concentration range of 10 μM to 300 pM. Assays were set up in CORNING® tissue culture-treated 384-well microplates containing 60 nL of each dilution. […] 50,000 cells/well and added to the compound plates. After a short spin (1200 rpm for 1 min), the plates were incubated at 37° C. for 1 hour. The cells were activated by adding 15 μL of IMMUNOCULT™ Human CD3/CD28 T Cell Activator ([…] Technologies) diluted in Opti-MEM. […] The AiphaLISA signal was measured using an EnVision plate reader (PerkinElmer). EC50 values were determined by fitting the data to a standard 4-parameter logistic equation.

T1 sequence (Q13191 whole entry, species assumed): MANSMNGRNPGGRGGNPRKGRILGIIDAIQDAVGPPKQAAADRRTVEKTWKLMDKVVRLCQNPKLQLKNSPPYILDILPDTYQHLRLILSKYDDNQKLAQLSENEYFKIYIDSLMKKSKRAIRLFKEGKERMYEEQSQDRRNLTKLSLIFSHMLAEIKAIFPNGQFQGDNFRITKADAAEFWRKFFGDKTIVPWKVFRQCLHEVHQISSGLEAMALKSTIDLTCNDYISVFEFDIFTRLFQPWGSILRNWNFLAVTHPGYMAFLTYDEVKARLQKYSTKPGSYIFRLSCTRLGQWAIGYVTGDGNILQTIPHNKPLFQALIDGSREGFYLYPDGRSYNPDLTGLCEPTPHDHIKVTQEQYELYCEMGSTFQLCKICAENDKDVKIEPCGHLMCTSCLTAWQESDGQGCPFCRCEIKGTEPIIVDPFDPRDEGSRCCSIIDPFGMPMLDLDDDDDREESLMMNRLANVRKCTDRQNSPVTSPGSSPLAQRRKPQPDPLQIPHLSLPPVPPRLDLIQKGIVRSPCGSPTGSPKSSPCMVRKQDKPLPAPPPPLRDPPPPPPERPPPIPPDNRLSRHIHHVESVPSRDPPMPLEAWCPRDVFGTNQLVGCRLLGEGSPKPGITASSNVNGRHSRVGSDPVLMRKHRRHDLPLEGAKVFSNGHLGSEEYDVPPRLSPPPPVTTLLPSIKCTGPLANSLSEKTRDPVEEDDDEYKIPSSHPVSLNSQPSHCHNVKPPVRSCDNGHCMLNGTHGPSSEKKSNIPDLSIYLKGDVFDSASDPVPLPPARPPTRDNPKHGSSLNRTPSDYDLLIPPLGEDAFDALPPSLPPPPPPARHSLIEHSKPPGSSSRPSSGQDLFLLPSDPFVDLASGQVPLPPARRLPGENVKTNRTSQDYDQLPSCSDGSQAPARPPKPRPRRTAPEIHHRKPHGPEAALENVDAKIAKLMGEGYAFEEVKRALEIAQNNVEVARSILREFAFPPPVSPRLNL

IC50 (Cbl-b) | EC50 (Jurkat cells) | Compound
< 100 nM | 1000 to 5000 nM | Cn1cncc1-c1c[nH]c2c(=O)n(-c3cccc([C@]4(c5nncn5C)C[C@@H](C)C4)c3)cc(C3CC3)c12 (single isomer, unassigned) [Example 34]
< 100 nM | 100 to 1000 nM | Cn1cnnc1[C@]1(c2cccc(-n3cc(C(F)(F)F)c4cc[nH]c4c3=O)c2)C[C@H](C)C1 (single isomer, unassigned) [Example 36]
< 100 nM | 100 to 1000 nM | Cn1cnnc1[C@]1(c2cccc(-n3cc(C(F)(F)F)c4cc[nH]c4c3=O)c2)C[C@@H](C)C1 (single isomer, unassigned) [Example 37]
< 100 nM | < 100 nM | C[C@H]1CCCN(Cc2cc3c(S(C)(=O)=O)cn(-c4cccc([C@]5(c6nncn6C)C[C@@H](C)C5)c4)c(=O)c3[nH]2)C1 (single isomer, unassigned) [Example 107]
100 to 1000 nM | > 5000 nM | Cn1cnnc1[C@]1(c2cccc(-n3cc(S(C)(=O)=O)c4cc[nH]c4c3=O)c2)C[C@H](C)C1 (single isomer, unassigned) [Example 108, 6-[3-[3-methyl-1-(4-methyl-1,2,4-triazol-3-yl)cyclobutyl]phenyl]-4-methylsulfonyl-1H-pyrrolo[2,3-c]pyridin-7-one]
100 to 1000 nM | > 5000 nM | Cn1cnnc1[C@]1(c2cccc(-n3cc(C4CC4)c4[nH]c(=O)[nH]c4c3=O)c2)C[C@H](C)C1 (single isomer, unassigned) [Example 117, 7-cyclopropyl-5-[3-[cis-3-methyl-1-(4-methyl-1,2,4-triazol-3-yl)cyclobutyl]phenyl]-1,3-dihydroimidazo[4,5-c]pyridine-2,4-dione]
100 to 1000 nM | > 5000 nM | Cn1cnnc1[C@]1(c2cccc(-n3cc(C4CC4)c4[nH]c(=O)[nH]c4c3=O)c2)C[C@@H](C)C1 (single isomer, unassigned) [Example 118, 7-cyclopropyl-5-[3-[trans-3-methyl-1-(4-methyl-1,2,4-triazol-3-yl)cyclobutyl]phenyl]-1,3-dihydroimidazo[4,5-c]pyridine-2,4-dione]
100 to 1000 nM | 1000 to 5000 nM | CC1CC(c2cccc(-n3cc(C4CC4)c4cc[nH]c4c3=O)c2)(c2nncn2C)C1 (stereo not shown) [Example 4, 4-cyclopropyl-6-[3-[3-methyl-1-(4-methyl-1,2,4-triazol-3-yl)cyclobutyl]phenyl]-1H-pyrrolo[2,3-c]pyridin-7-one]
< 100 nM | 1000 to 5000 nM | Cn1cnnc1[C@]1(c2cccc(-n3cc(C4CC4)c4cn[nH]c4c3=O)c2)C[C@H](C)C1 [Example 7, 4-cyclopropyl-6-{3-[(1r,3s)-3-methyl-1-(4-methyl-4H-1,2,4-triazol-3-yl)cyclobutyl]phenyl}-1H,6H,7H-pyrazolo[3,4-c]pyridin-7-one]
1000 to 5000 nM | 1000 to 5000 nM | CC1CC(c2cccc(-n3cc(C4CC4)c4cc(CO)[nH]c4c3=O)c2)(c2nncn2C)C1 (stereo not shown) [Example 8, 4-cyclopropyl-2-(hydroxymethyl)-6-[3-[3-methyl-1-(4-methyl-1,2,4-triazol-3-yl)cyclobutyl]phenyl]-1H-pyrrolo[2,3-c]pyridin-7-one]
100 to 1000 nM | 1000 to 5000 nM | Cn1cnnc1C1(c2cccc(-n3cc(C4CC4)c4cc[nH]c4c3=O)c2)CCC1 [Example 9, 4-cyclopropyl-6-[3-[1-(4-methyl-1,2,4-triazol-3-yl)cyclobutyl]phenyl]-1H-pyrrolo[2,3-c]pyridin-7-one]
< 100 nM | 1000 to 5000 nM | Cn1cnnc1[C@]1(c2cccc(-n3cc(C#N)c4cc[nH]c4c3=O)c2)C[C@H](C)C1 [Example 38, 7-oxo-6-{3-[(1r,3s)-3-methyl-1-(4-methyl-4H-1,2,4-triazol-3-yl)cyclobutyl]phenyl}-1H,6H,7H-pyrrolo[2,3-c]pyridine-4-carbonitrile]
< 100 nM | < 100 nM | CC1CC(c2cccc(-n3cc(C4CC4)c4cc(CNC5(C)CCC5)[nH]c4c3=O)c2)(c2nncn2C)C1 (stereo not shown) [Example 39, 4-cyclopropyl-6-{3-[3-methyl-1-(4-methyl-4H-1,2,4-triazol-3-yl)cyclobutyl]phenyl}-2-{[(1-methylcyclobutyl)amino]methyl}-1H,6H,7H-pyrrolo[2,3-c]pyridin-7-one]
< 100 nM | 100 to 1000 nM | CC1CC(c2cccc(-n3cc(C4CC4)c4cc(CN[C@@H]5COC[C@@H]5O)[nH]c4c3=O)c2)(c2nncn2C)C1 (stereo partly drawn) [Example 40, 4-cyclopropyl-2-({[(3R,4R)-4-hydroxyoxolan-3-yl]amino}methyl)-6-{3-[3-methyl-1-(4-methyl-4H-1,2,4-triazol-3-yl)cyclobutyl]phenyl}-1H,6H,7H-pyrrolo[2,3-c]pyridin-7-one]
100 to 1000 nM | 1000 to 5000 nM | CC1CC(c2cccc(-n3cc(C4CC4)c4cc(CNC5(C(F)(F)F)CC5)[nH]c4c3=O)c2)(c2nncn2C)C1 (stereo not shown) [Example 41, 4-cyclopropyl-6-{3-[(1r,3s)-3-methyl-1-(4-methyl-4H-1,2,4-triazol-3-yl)cyclobutyl]phenyl}-2-({[1-(trifluoromethyl)cyclopropyl]amino}methyl)-1H,6H,7H-pyrrolo[2,3-c]pyridin-7-one]
< 100 nM | < 100 nM | CC1CC(c2cccc(-n3cc(C4CC4)c4cc(CNC5(CO)CCC5)[nH]c4c3=O)c2)(c2nncn2C)C1 (stereo not shown) [Example 42, 4-cyclopropyl-2-({[1-(hydroxymethyl)cyclobutyl]amino}methyl)-6-{3-[3-methyl-1-(4-methyl-4H-1,2,4-triazol-3-yl)cyclobutyl]phenyl}-1H,6H,7H-pyrrolo[2,3-c]pyridin-7-one]
< 100 nM | < 100 nM | CC1CC(c2cccc(-n3cc(C4CC4)c4cc(CN5CCCC[C@@H]5C)[nH]c4c3=O)c2)(c2nncn2C)C1 (stereo partly shown) [Example 43, 4-cyclopropyl-6-{3-[3-methyl-1-(4-methyl-4H-1,2,4-triazol-3-yl)cyclobutyl]phenyl}-2-{[(2S′)-2-methylpiperidin-1-yl]methyl}-1H,6H,7H-pyrrolo[2,3-c]pyridin-7-one]
< 100 nM | < 100 nM | CC1CC(c2cccc(-n3cc(C4CC4)c4cc(CN5CCO[C@H](C)C5)[nH]c4c3=O)c2)(c2nncn2C)C1 (stereo partly drawn) [Example 45, 4-cyclopropyl-6-{3-[3-methyl-1-(4-methyl-4H-1,2,4-triazol-3-yl)cyclobutyl]phenyl}-2-{[(2R)-2-methylmorpholin-4-yl]methyl}-1H,6H,7H-pyrrolo[2,3-c]pyridin-7-one]
< 100 nM | 100 to 1000 nM | CC1CC(c2cccc(-n3cc(C4CC4)c4cc(CNCCOC(F)(F)F)[nH]c4c3=O)c2)(c2nncn2C)C1 (stereo not shown) [Example 46, 4-cyclopropyl-6-{3-[3-methyl-1-(4-methyl-4H-1,2,4-triazol-3-yl)cyclobutyl]phenyl}-2-({[2-(trifluoromethoxy)ethyl]amino}methyl)-1H,6H,7H-pyrrolo[2,3-c]pyridin-7-one]
< 100 nM | < 100 nM | CC1CC(c2cccc(-n3cc(C4CC4)c4cc(CN(C)C5CCCC5)[nH]c4c3=O)c2)(c2nncn2C)C1 (stereo not shown) [Example 47, 2-{[cyclopentyl(methyl)amino]methyl}-4-cyclopropyl-6-{3-[3-methyl-1-(4-methyl-4H-1,2,4-triazol-3-yl)cyclobutyl]phenyl}-1H,6H,7H-pyrrolo[2,3-c]pyridin-7-one]
< 100 nM | < 100 nM | CC1CC(c2cccc(-n3cc(C4CC4)c4cc(CN[C@@H]5CCCOC5)[nH]c4c3=O)c2)(c2nncn2C)C1 (stereo partly shown) [Example 49, 4-cyclopropyl-6-{3-[3-methyl-1-(4-methyl-4H-1,2,4-triazol-3-yl)cyclobutyl]phenyl}-2-{[(oxan-3-yl)amino]methyl}-1H,6H,7H-pyrrolo[2,3-c]pyridin-7-one]
< 100 nM | < 100 nM | CC1CC(c2cccc(-n3cc(C4CC4)c4cc(CN5CCC6(CC5)CC6)[nH]c4c3=O)c2)(c2nncn2C)C1 (stereo not shown) [Example 50, 2-({6-azaspiro[2.5]octan-6-yl}methyl)-4-cyclopropyl-6-{3-[3-methyl-1-(4-methyl-4H-1,2,4-triazol-3-yl)cyclobutyl]phenyl}-1H,6H,7H-pyrrolo[2,3-c]pyridin-7-one]
< 100 nM | 100 to 1000 nM | CC1CC(c2cccc(-n3cc(C4CC4)c4cc(CN5C[C@H]6C[C@@H]5CO6)[nH]c4c3=O)c2)(c2nncn2C)C1 (stereo partly drawn) [Example 51, 4-cyclopropyl-6-{3-[3-methyl-1-(4-methyl-4H-1,2,4-triazol-3-yl)cyclobutyl]phenyl}-2-{[(1R,4R)-2-oxa-5-azabicyclo[2.2.1]heptan-5-yl]methyl}-1H,6H,7H-pyrrolo[2,3-c]pyridin-7-one]
